{
  "source": "patent US9675576B2",
  "about": "“Polyenolic zinc-binding agents (pezbins) actively promote inactivation of cancer stem cells and potentiate cytotoxic anti-tumor drug substances” (The Research Foundation for The State University of New York, priority 2012, dated 2017)",
  "key": {"c-Myc, Sox-2 and Oct4": {"tested_on": "c-Myc, Sox-2 and Oct4", "assay": "Western blot of key transcription factors", "assay_type": "cell-based, human", "experimental": "(§1) Cells were lysed using Active Motif Nuclear Co-ip kit according to manufacturer's protocol. 20 μg of enriched nuclear and cytoplasmic extracts was subjected to electrophoresis in 10% polyacrylamide gel. The proteins were then transferred to a nitrocellulose membrane and developed with appropriate antibodies."}, "[1]": {"tested_on": "PPT2 and PC3MM2 cell lines", "assay": "FACS analysis of CD133 expression after drug treatment", "assay_type": "cell-based, human", "from_the_text": "To ensure more reliable isolation of CSCs, cells were labeled with one or several markers conjugated with different fluorescent dyes, including anti-human CD133/2-APC (clone 293C3; Miltenyi Biotec, CA, USA); CD166-PE (clone 105902; R&D Systems, MN, USA); CD44-FITC (clone F10-44-2), CD44-PE (clone F10-44-2; Invitrogen/Biosources, USA); CD44v6-FITC (clone 2F10; R&D Systems, USA), EpCAM-FITC (Biosource, CA, USA), Pan-Keratin (C11)-Alexa Fluor® 488 (Cell Signaling) and all the isotype controls (Chemicon). Antibodies were diluted in buffer containing 5% BSA, 1 mM EDTA and 15-20% blocking reagent (Miltenyi Biotec) to inhibit unspecific binding to non-target cells. After 15 min incubation at 4° C., stained cells were sorted and analyzed with multiparametric flow cytometer BD FACSAria (Becton Dickinson, CA). Alternatively, dissociated cells were centrifuged at 950 g for 5 min at 4° C., rinsed with sterile MACS buffer (Miltenyi Biotec, CA) and labeled with CD133 Abs directly or indirectly conjugated with ferromagnetic beads (Miltenyi Biotec, CA) as recommended by manufacturer.\n(§2) The CSC-specific cytotoxic effects were studied in two different settings both of which are known to maintain/promote sternness phenotype: adherent to type I collagen cultures and 3D cultures of floating spheroids (Baretton, G. B. 1994; Miyoshi, Y. 2000; Koivisto, P. 1995). The CD133^high/CD44^high cells (1×10^3 cells/well) isolated either from PPT2 or PC3MM2 cell lines were seeded onto the type I collagen-coated 96-well plates, cultured in the MSCGM for 2 days, and the treatment was initiated upon 90% confluency. Paclitaxel, SBT-1214 and CMC2.24 were dissolved in sterile DMSO and then serially diluted in MSCGM. […] Cell death was analyzed on adherent type I collagen cell cultures with the MTT assay [MTT=3-(4,5-dimethylthiazol-2-yl)-2,5-diphenyltetrazolium bromide] as recommended by manufacturer (Invitrogen). […]"}, "[2]": {"tested_on": "prostate CD133+ cells (PPT2 and PC3MM2)", "assay": "MTT cytotoxicity assay, results stated for prostate CD133+ cells without split by line", "assay_type": "cell-based, human", "experimental": "(§3) The CSC-specific cytotoxic effects were studied in two different settings both of which are known to maintain/promote sternness phenotype: adherent to type I collagen cultures and 3D cultures of floating spheroids (Baretton, G. B. 1994; Miyoshi, Y. 2000; Koivisto, P. 1995). The CD133^high/CD44^high cells (1×10^3 cells/well) isolated either from PPT2 or PC3MM2 cell lines were seeded onto the type I collagen-coated 96-well plates, cultured in the MSCGM for 2 days, and the treatment was initiated upon 90% confluency. Paclitaxel, SBT-1214 and CMC2.24 were dissolved in sterile DMSO and then serially diluted in MSCGM. For testing the SBT-1214/CMC2.24 combination efficacy, the regular MSCGM was replaced with treatment medium containing SBT-1214 or Ptx at selected concentration range (from 10 nM to 10 μM) with 30 μM CMC2.24. Treatment medium was removed 24, 48 or 72 hr later, followed by return to the MSCGM. Cell death was analyzed on adherent type I collagen cell cultures with the MTT assay [MTT=3-(4,5-dimethylthiazol-2-yl)-2,5-diphenyltetrazolium bromide] as recommended by manufacturer (Invitrogen). Spheroids were cultured and treated on ULA plates.\n(§4) The dose-response cytotoxicity of SBT-1214, CMC2.24/and their combination was evaluated by standard MTT assay (all of the in vitro experiments were repeated at least three times and each measurement for the MMT assay was performed in 4 repeats). The dose-response points were plotted as a percentage of the untreated control, the absorbance of which was considered as 100%. Data were expressed as means±SD for each drug concentration. The in vivo responses to drug treatment were evaluated as changes in tumor volume of drug-treated versus untreated control xenografts induced by particular type of cells. Data were expressed as means±SD for control and drug treated tumors. The statistical significance of differences was determined using Student's t-test. The parameters used were the two-tailed distribution and the paired test. P<0.05 was considered statistically significant."}, "[3]": {"tested_on": "CSC-relevant transcription factors in colon cancer HCT116 CD133+ and prostate xPT2 CD133+ cells", "assay": "PCR array of stem cell-related transcription factors, colon and prostate CD133+ cells", "assay_type": "cell-based, human", "settings": "CMC2.24 as stated in Example 2", "protocol": "Stem cell-specific gene expression profiles were studied with the PCR Array assay (SABiosciences, CA) in accordance with the manufacturer's recommendations. Briefly, total RNA was isolated from different cell populations (cancer stem cells expressing high levels of the CD133 and CD44, or whole floating spheroids that are enriched with CSCs) using PARIS kit (Ambion). Up to 1 μg of total RNA was treated with DNase and cDNA was prepared using RT^2 First Strand kit. For each analysis, pairs of the test and control cDNA samples were mixed with RT^2 qPCR Master mix and distributed across the PCR array 96-well plates, each of which contained 84 stem cell-related probes and control housekeeping genes. After cycling with real-time PCR (Opticon MJ Research or ABI 7300, Applied Biosystems), obtained amplification data (fold-changes in Ct values of all the genes) was analyzed with SABiosciences software."}, "[4]": {"settings": "in vivo; cited from earlier work"}, "p53 and p21": {"tested_on": "p53 and p21", "assay": "Western blot of pro-apoptotic proteins", "assay_type": "cell-based, human", "settings": "CD133+ and bulk PPT2 cells, previously not expressed", "experimental": "as §1"}, "CD133+ PC3MM2 cells": {"tested_on": "CD133+ PC3MM2 cells", "assay": "MTT cytotoxicity assay, CD133+ PC3MM2 cells on type I collagen", "assay_type": "cell-based, human", "settings": "72 hours, 10 nM-10 μM", "experimental": "as §2\nas §4, with “The in vivo responses to drug treatment were evaluated as changes in tumor volume of drug-treated versus untreated control xenografts induced by particular type of cells.” left out, “The parameters used were the two-tailed distribution and the paired test. P<0.05 was considered statistically significant.” left out"}, "CD133hi cells": {"tested_on": "CD133hi cells", "assay": "Number of CD133hi cells after taxol, stemness-promoting cultures (FIG. 1)", "assay_type": "cell-based", "experimental": "FIG. 1: The standard anti-cancer drug Taxol increases the ratios (shown by FACS analyses of cells with high expression of CD133) and actual number of CSCs (shown at right graph). CSC-enriched cell populations were cultured and treated in vitro under stemness-promoting condition, i.e. adherent to type I collagen (upper left panels) and as floating 3D spheroids (low left panels) in serum-free stem cell medium (MSCBM, Lonza).\nBefore any assays, particular cells were isolated using immunomagnetic and FACS cell sorting, characterized with FACS analysis and cultured under the stemness-promoting conditions (repeated cell sorting; serum-free stem cell medium; Lonza; low cell density; type I collagen-coated surfaces; non-adherent culturing on ultra-low adherent plates; Corning)."}, "CD133+ PPT2 cells": {"tested_on": "CD133+ PPT2 cells", "assay_type": "cell-based, human", "settings": "72 hours, 10 nM-10 μM", "experimental": "as §3, §4"}},
  "data": [
    {"smiles": "O=C(/C=C/c1ccc(O)cc1)C(C(=O)/C=C/c1ccc(O)cc1)C(=O)Nc1ccccc1", "note": "[CMC2.24]", "values": [
      {"measurement": "key TF proteins", "setting": "c-Myc, Sox-2 and Oct4; both nuclear and cytoplasmic fractions", "value": "dramatic inhibition"},
      {"measurement": "c-Myc and Sox2 expression", "setting": "c-Myc, Sox-2 and Oct4; nuclear extracts of CD133+ and bulk PPT2 cells", "value": "moderate down-regulation"},
      {"measurement": "ratios of cells with highest expression of CD133", "setting": "[1]; CMC2.24 treatment, FIG. 11C", "value": "did not induce an increase"},
      {"measurement": "effect on cells, higher doses", "setting": "[2]; 10-40 μM, 72 hr", "value": "increasingly cytotoxic"},
      {"measurement": "concentration dependence of effect on prostate CD133+ cells", "setting": "[2]; single agent", "value": "biphasic effects"},
      {"measurement": "effect on cell proliferation, low concentrations", "setting": "[2]; up to 10 μM, 72 hr", "value": "stimulated cell proliferation"},
      {"measurement": "inhibition of CSC-relevant transcription factors", "setting": "[3]", "value": "profound inhibition of the majority"},
      {"measurement": "systemic toxicity", "setting": "[4]", "value": "no systemic toxicity"},
      {"measurement": "expression of p21 and p53", "setting": "p53 and p21", "value": "induced expression"}
    ]},
    {"smiles": "CC(=O)O[C@H]1C(=O)[C@@]2(C)[C@H]([C@H](OC(=O)c3ccccc3)[C@]3(O)C[C@H](OC(=O)[C@H](O)[C@@H](NC(=O)c4ccccc4)c4ccccc4)C(C)=C1C3(C)C)[C@]1(OC(C)=O)CO[C@@H]1C[C@@H]2O", "note": "[Paclitaxel]", "values": [
      {"measurement": "proliferation of the tumorigenic prostate cancer cells", "setting": "CD133+ PC3MM2 cells", "value": "did not suppress proliferation"},
      {"measurement": "number of CD133hi cells after treatment", "setting": "CD133hi cells; 3D spheroids", "value": 149, "unit": "%"},
      {"measurement": "number of CD133hi cells after treatment", "setting": "CD133hi cells; type I collagen cultures", "value": 160, "unit": "%"},
      {"measurement": "ratios of cells with highest expression of CD133", "setting": "[1]; 10 nM to 10 μM, 24 hours, concentration-dependent", "value": "increased the ratios"},
      {"measurement": "cell death", "setting": "[2]; 10 μM, 48-72 hours", "value": "about 40%"},
      {"measurement": "proliferation of the tumorigenic prostate cancer cells", "setting": "CD133+ PPT2 cells", "value": "did not suppress proliferation"}
    ]}
  ]
}
